Tests used:
[1] = molecular target: T1, human V2 receptor (Homo sapiens, UniProt P30518); assay: Cellular in vitro assay for determining vasopressin receptor activity (V2, CRE-luciferase); type: cell-based; conditions: CHO cell line transfected with the human V2 receptor; [Arg8]-vasopressin at EC50 concentration; read-out: IC50 hV2
T1 construct: expressed in transfected cells; host or cells: CHO K1 (ATCC) expressing firefly luciferase under a CRE-responsive promoter
Method in brief: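 CHO K1 cells stably expressing the human V2 receptor and a CRE-driven firefly luciferase were plated the day before in DMEM/F12 with 2% FCS. Test compounds were added together with [Arg8]-vasopressin at its EC50 and incubated 3 h at 37 °C. Luciferase luminescence was read after Triton lysis and luciferin addition, giving IC50 values.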

[2] = molecular target: T2, human V1a receptor (Homo sapiens, UniProt P37288); assay: Cellular in vitro assay for determining vasopressin receptor activity (V1a, aequorin luminescence); type: cell-based; conditions: for IC50: CHO cell line transfected with the human V1a receptor, [Arg8]-vasopressin at EC50 concentration, read-out: IC50 hV1a; for ratio IC50 hV2/hV1a: selectivity ratio of IC50 hV2 to IC50 hV1a
T2 construct: expressed in transfected cells; host or cells: CHO K1 (ATCC), also stably transfected with a modified aequorin
T2 sequence (P37288 whole entry): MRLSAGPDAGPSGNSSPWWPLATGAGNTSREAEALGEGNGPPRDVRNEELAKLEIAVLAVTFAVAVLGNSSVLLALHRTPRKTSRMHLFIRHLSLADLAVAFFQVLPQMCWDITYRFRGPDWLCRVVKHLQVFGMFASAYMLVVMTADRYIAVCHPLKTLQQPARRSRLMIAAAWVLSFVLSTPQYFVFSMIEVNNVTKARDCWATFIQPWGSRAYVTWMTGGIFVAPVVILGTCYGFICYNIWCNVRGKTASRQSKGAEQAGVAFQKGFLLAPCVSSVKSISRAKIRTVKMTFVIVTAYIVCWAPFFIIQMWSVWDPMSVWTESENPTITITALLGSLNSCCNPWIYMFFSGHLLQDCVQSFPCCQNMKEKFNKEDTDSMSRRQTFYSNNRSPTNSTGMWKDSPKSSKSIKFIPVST

T1 sequence (P30518 whole entry): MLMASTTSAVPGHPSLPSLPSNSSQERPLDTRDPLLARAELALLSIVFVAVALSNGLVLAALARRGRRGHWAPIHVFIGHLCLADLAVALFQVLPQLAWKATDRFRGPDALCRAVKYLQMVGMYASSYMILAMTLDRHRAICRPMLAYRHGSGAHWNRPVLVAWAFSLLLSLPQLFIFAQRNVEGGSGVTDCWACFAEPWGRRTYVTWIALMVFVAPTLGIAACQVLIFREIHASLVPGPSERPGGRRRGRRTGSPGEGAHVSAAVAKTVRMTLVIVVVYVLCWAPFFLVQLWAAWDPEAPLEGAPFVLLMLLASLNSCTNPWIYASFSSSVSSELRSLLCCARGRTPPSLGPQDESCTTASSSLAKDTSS

| Structure (SMILES) | IC50 [1] | IC50 [2] | ratio IC50 hV2/hV1a [2] |
| --- | --- | --- | --- |
| NC(=O)OCc1nc(Cn2nc(-c3ccc(Cl)cc3)n(C[C@H](O)C(F)(F)F)c2=O)nn1-c1cccc(F)c1 [Example 26, [3-({3-(4-Chlorophenyl)-5-oxo-4-[(2S)-3,3,3-trifluoro-2-hydroxypropyl]-4,5-dihydro-1H-1,2,4-triazol-1-yl}methyl)-1-(3-fluorophenyl)-1H-1,2,4-triazol-5-yl]methyl Carbamate] | 4.82 nM | 5.29 nM | 0.9 |
| COc1ccccc1-n1nc(Cn2nc(-c3ccc(Cl)cc3)n(C[C@H](O)C(F)(F)F)c2=O)nc1COC(N)=O [Example 27, [3-({3-(4-Chlorophenyl)-5-oxo-4-[(2S)-3,3,3-trifluoro-2-hydroxypropyl]-4,5-dihydro-1H-1,2,4-triazol-1-yl}methyl)-1-(2-methoxyphenyl)-1H-1,2,4-triazol-5-yl]methyl Carbamate] | 3.11 nM | 1.78 nM | 1.8 |
| NC(=O)OCc1nc(Cn2nc(-c3ccc(Cl)cc3)n(C[C@H](O)C(F)(F)F)c2=O)nn1-c1ccccc1Cl [Example 28, [1-(2-Chlorophenyl)-3-({3-(4-chlorophenyl)-5-oxo-4-[(2S)-3,3,3-trifluoro-2-hydroxypropyl]-4,5-dihydro-1H-1,2,4-triazol-1-yl}methyl)-1H-1,2,4-triazol-5-yl]methyl Carbamate] | 2.57 nM | 0.43 nM | 6.0 |
| NC(=O)OCc1nc(Cn2nc(-c3ccc(Cl)cc3)n(C[C@H](OC(N)=O)C(F)(F)F)c2=O)nn1-c1ccccc1Cl [Example 29, (2S)-3-[1-({5-[(Carbamoyloxy)methyl]-1-(2-chlorophenyl)-1H-1,2,4-triazol-3-yl}methyl)-3-(4-chlorophenyl)-5-oxo-1,5-dihydro-4H-1,2,4-triazol-4-yl]-1,1,1-trifluoropropan-2-yl Carbamate] | 2.93 nM | 1.29 nM | 2.3 |
| C[C@H](OC(N)=O)c1nc(Cn2nc(-c3ccc(Cl)cc3)n(C[C@H](O)C(F)(F)F)c2=O)nn1-c1cccc(F)c1 [Example 30, (1S)-1-[3-({3-(4-Chlorophenyl)-5-oxo-4-[(2S)-3,3,3-trifluoro-2-hydroxypropyl]-4,5-dihydro-1H-1,2,4-triazol-1-yl}methyl)-1-(3-fluorophenyl)-1H-1,2,4-triazol-5-yl]ethyl Carbamate] | 3.81 nM | 36.6 nM | 0.1 |
| C[C@@H](OC(N)=O)c1nc(Cn2nc(-c3ccc(Cl)cc3)n(C[C@H](O)C(F)(F)F)c2=O)nn1-c1ccccc1Cl [Example 31, (1R)-1-[1-(2-Chlorophenyl)-3-({3-(4-chlorophenyl)-5-oxo-4-[(2S)-3,3,3-trifluoro-2-hydroxypropyl]-4,5-dihydro-1H-1,2,4-triazol-1-yl}methyl)-1H-1,2,4-triazol-5-yl]ethyl Carbamate] | 7.42 nM | 0.94 nM | 7.9 |
| C[C@@H](OC(N)=O)c1nc(Cn2nc(-c3ccc(Cl)cc3)n(C[C@H](OC(N)=O)C(F)(F)F)c2=O)nn1-c1ccccc1Cl [Example 32, (2S)-3-[1-({5-[(1R)-1-(Carbamoyloxy)ethyl]-1-(2-chlorophenyl)-1H-1,2,4-triazol-3-yl}methyl)-3-(4-chlorophenyl)-5-oxo-1,5-dihydro-4H-1,2,4-triazol-4-yl]-1,1,1-trifluoropropan-2-yl Carbamate] | 10.3 nM | 0.51 nM | 20.3 |
| C[C@H](OC(N)=O)c1nc(Cn2nc(-c3ccc(Cl)cc3)n(C[C@H](O)C(F)(F)F)c2=O)nn1-c1ccccc1Cl [Example 33, (1S)-1-[1-(2-Chlorophenyl)-3-({3-(4-chlorophenyl)-5-oxo-4-[(2S)-3,3,3-trifluoro-2-hydroxypropyl]-4,5-dihydro-1H-1,2,4-triazol-1-yl}methyl)-1H-1,2,4-triazol-5-yl]ethyl Carbamate] | 3.63 nM | 0.99 nM | 3.7 |
| C[C@H](OC(N)=O)c1nc(Cn2nc(-c3ccc(Cl)cc3)n(C[C@H](OC(N)=O)C(F)(F)F)c2=O)nn1-c1ccccc1Cl [Example 34, (2S)-3-[1-({5-[(1S)-1-(Carbamoyloxy)ethyl]-1-(2-chlorophenyl)-1H-1,2,4-triazol-3-yl}methyl)-3-(4-chlorophenyl)-5-oxo-1,5-dihydro-4H-1,2,4-triazol-4-yl]-1,1,1-trifluoropropan-2-yl Carbamate] | 2.75 nM | 0.64 nM | 4.3 |
| C[C@H](OC(N)=O)c1nc(Cn2nc(-c3ccc(Cl)cc3)n(C[C@H](O)C(F)(F)F)c2=O)nn1-c1cccc(Cl)c1 [Example 35, (1S)-1-[1-(3-Chlorophenyl)-3-({3-(4-chlorophenyl)-5-oxo-4-[(2S)-3,3,3-trifluoro-2-hydroxypropyl]-4,5-dihydro-1H-1,2,4-triazol-1-yl}methyl)-1H-1,2,4-triazol-5-yl]ethyl Carbamate] | 1.99 nM | 41.4 nM |  |
| C[C@@H](OC(N)=O)c1nc(Cn2nc(-c3ccc(Cl)cc3)n(C[C@H](O)C(F)(F)F)c2=O)nn1-c1cccc(Cl)c1 [Example 36, (1R)-1-[1-(3-Chlorophenyl)-3-({3-(4-chlorophenyl)-5-oxo-4-[(2S)-3,3,3-trifluoro-2-hydroxypropyl]-4,5-dihydro-1H-1,2,4-triazol-1-yl}methyl)-1H-1,2,4-triazol-5-yl]ethyl Carbamate] | 1.81 nM | 28.6 nM | 0.1 |
| Cc1ccccc1-n1nc(Cn2nc(-c3ccc(Cl)cc3)n(C[C@H](O)C(F)(F)F)c2=O)nc1COC(N)=O [Example 37, [3-({3-(4-Chlorophenyl)-5-oxo-4-[(2S)-3,3,3-trifluoro-2-hydroxypropyl]-4,5-dihydro-1H-1,2,4-triazol-1-yl}methyl)-1-(2-methylphenyl)-1H-1,2,4-triazol-5-yl]methyl Carbamate] | 6.62 nM | 0.77 nM | 8.6 |
| Cc1ccccc1-n1nc(Cn2nc(-c3ccc(Cl)cc3)n(C[C@H](OC(N)=O)C(F)(F)F)c2=O)nc1COC(N)=O [Example 38, (2S)-3-[1-({5-[(Carbamoyloxy)methyl]-1-(2-methylphenyl)-1H-1,2,4-triazol-3-yl}methyl)-3-(4-chlorophenyl)-5-oxo-1,5-dihydro-4H-1,2,4-triazol-4-yl]-1,1,1-trifluoropropan-2-yl Carbamate] | 3.56 nM | 0.65 nM | 5.5 |
| CCNC(=O)OCc1nc(Cn2nc(-c3ccc(Cl)cc3)n(C[C@H](O)C(F)(F)F)c2=O)nn1-c1cccc(F)c1 [Example 43, [3-({3-(4-Chlorophenyl)-5-oxo-4-[(2S)-3,3,3-trifluoro-2-hydroxypropyl]-4,5-dihydro-1H-1,2,4-triazol-1-yl}methyl)-1-(3-fluorophenyl)-1H-1,2,4-triazol-5-yl]methyl Ethylcarbamate] | 5.93 nM | 5.59 nM | 1.1 |
| COCCNC(=O)OCc1nc(Cn2nc(-c3ccc(Cl)cc3)n(C[C@H](O)C(F)(F)F)c2=O)nn1-c1cccc(F)c1 [Example 44, [3-({3-(4-Chlorophenyl)-5-oxo-4-[(2S)-3,3,3-trifluoro-2-hydroxypropyl]-4,5-dihydro-1H-1,2,4-triazol-1-yl}methyl)-1-(3-fluorophenyl)-1H-1,2,4-triazol-5-yl]methyl (2-methoxyethyl)carbamate] | 7.98 nM | 27.6 nM | 0.3 |
| O=C(NCC(F)(F)F)OCc1nc(Cn2nc(-c3ccc(Cl)cc3)n(C[C@H](O)C(F)(F)F)c2=O)nn1-c1cccc(F)c1 [Example 45, [3-({3-(4-Chlorophenyl)-5-oxo-4-[(2S)-3,3,3-trifluoro-2-hydroxypropyl]-4,5-dihydro-1H-1,2,4-triazol-1-yl}methyl)-1-(3-fluorophenyl)-1H-1,2,4-triazol-5-yl]methyl (2,2,2-trifluoroethyl)-carbamate] | 5.13 nM | 11.2 nM | 0.5 |
| CNC(=O)OCc1nc(Cn2nc(-c3ccc(Cl)cc3)n(C[C@H](O)C(F)(F)F)c2=O)nn1-c1cccc(F)c1 [Example 46, [3-({3-(4-Chlorophenyl)-5-oxo-4-[(2S)-3,3,3-trifluoro-2-hydroxypropyl]-4,5-dihydro-1H-1,2,4-triazol-1-yl}methyl)-1-(3-fluorophenyl)-1H-1,2,4-triazol-5-yl]methyl Methylcarbamate] | 9.36 nM | 6.47 nM | 1.5 |
| CCNC(=O)OCc1nc(Cn2nc(-c3ccc(Cl)cc3)n(C[C@H](O)C(F)(F)F)c2=O)nn1-c1ccccc1Cl [Example 47, [1-(2-Chlorophenyl)-3-({3-(4-chlorophenyl)-5-oxo-4-[(2S)-3,3,3-trifluoro-2-hydroxypropyl]-4,5-dihydro-1H-1,2,4-triazol-1-yl}methyl)-1H-1,2,4-triazol-5-yl]methyl Ethylcarbamate] | 7.16 nM | 0.43 nM | 16.6 |
| COCCNC(=O)OCc1nc(Cn2nc(-c3ccc(Cl)cc3)n(C[C@H](O)C(F)(F)F)c2=O)nn1-c1ccccc1Cl [Example 48, [1-(2-Chlorophenyl)-3-({3-(4-chlorophenyl)-5-oxo-4-[(2S)-3,3,3-trifluoro-2-hydroxypropyl]-4,5-dihydro-1H-1,2,4-triazol-1-yl}methyl)-1H-1,2,4-triazol-5-yl]methyl (2-methoxyethyl)carbamate] | 5.91 nM | 1.12 nM | 5.3 |
